Test results from US20170029355A1, “LABILE ESTERS OF AGROCHEMICALS FOR CONTROLLED RELEASE AND REDUCTION OF OFF-SITE MOVEMENT” (Monsanto Technology LLC, priority 2011, published 2017).

How the values were obtained:
[1] = Photolysis / cleavage of the esters to dicamba (statements of the description); assay type: physicochemical; details: qualitative
Text: The efficacy of the photolabile esters can be assayed in vitro, or in greenhouse or field experiments. A useful in vitro assay for post-emergent activity involves photolysis of a dilute solution of the esters using simulated sunlight. This is conveniently achieved by photolysis of a solution of the ester in an organic solvent which is miscible with water and to which some water has been added. As described in the Examples, photolysis in acetonitrile or tetrahydrofuran containing 10% water by weight is effective. Low concentrations of the ester should be used so that the entire volume is exposed to sunlight. Since the maximum extinction coefficient of the typical esters above 220 nm is in the range of 1000-10,000 M^−1 cm^−1, a concentration of 0.1 mM is effective. Photolysis in a quartz tube exposed to simulated or actual sunlight is a typical protocol.

[2] = In vitro photo-release and hydrolytic release of dicamba in an aqueous medium (Example 36); assay type: physicochemical; details: 0.01 mM (0.005 mM for diesters)
Experimental: This Example describes the determination of photo-lability and hydrolytic lability of dicamba esters in an aqueous medium. 1 mM solutions of the esters were prepared in acetonitrile (or […] solutions of dicamba diesters). The solutions were then diluted with deionized water to a concentration of 0.01 mM (or 0.005 mM for diesters). The solutions were then transferred to quartz tubes and amber bottles and held in a growth chamber by the procedure of Example 26. A 14-hour day was generally used at a constant temperature of 35° C. Hydrolytic activity was assessed by measuring the increase in dicamba concentration after day zero in the amber (dark) bottles. […] Photolysis manifested itself as increased conversion in the quartz tubes compared to the dark control.
This Example provides the results of an aqueous lability test following the protocol of Example 35 for several dicamba esters which convert to dicamba primarily by hydrolysis. As shown by the results in the table below, conversion of the dark controls generally equaled or exceeded conversion in the photolysis solutions.

[3] = Solubility of the esters (statements of the description); assay type: physicochemical; details: qualitative
[4] = system: velvetleaf; assay: Greenhouse post-emergent control of velvetleaf by emulsifiable concentrates (Example 37); assay type: in vivo; details: Abutilon theophrasti, post-emergence, 504 h, greenhouse, Example 37; for pest or weed control at 140 g/ha: read-out: % Control of velvetleaf, 140 g/ha; for pest or weed control at 280 g/ha: read-out: % Control of velvetleaf, 280 g/ha; for pest or weed control at 420 g/ha: read-out: % Control of velvetleaf, 420 g/ha; for pest or weed control at 560 g/ha: read-out: % Control of velvetleaf, 560 g/ha
Experimental: (§1) The efficacy of some photo-labile ester formulations from Example 28 for post-emergent control of velvetleaf was tested in the greenhouse. All formulations were tested at rates of 140, 280, 420, and 560 g dicamba equivalent per hectare rates and compared to the diglycolamine salt of dicamba (CLARITY®) at the same rates and untreated control plants. The velvetleaf plants were 10-15 cm in height at the time of spraying. Percent control was evaluated three weeks after treatment.
The methodology of Example 29 was used to evaluate the efficacy of several esters of dicamba which convert to dicamba by hydrolysis for post-emergent control of velvetleaf as emulsifiable concentrate formulations.

[5] = system: Euphorbia species; assay: Field testing for post-emergent activity in the Southern Hemisphere (Example 39); assay type: in vivo; details: 9 as suspension concentrate, other esters as emulsifiable concentrates
Experimental: The primary weeds were Euphorbia species. Ester 9 was tested as a suspension concentrate using the formulation of Example 33 The other esters were tested as emulsifiable concentrates having the formulations shown in the table below. Akzo Nobel SPONTO EC 334 and SPONTO EC 336 along with SURFONIC CO-54 and […] (Huntsman) were used as emulsifiers and Aromatic 200 (A 200; Exxon) was used as the solvent. […] The diglycolamine salt of dicamba (CLARITYTM) was used as a comparator.

[6] = system: broadleaf weeds; assay: Control of broadleaf weeds by ester concentrates (statements of the description); assay type: in vivo; details: emulsifiable and suspension concentrates; Sesbania macrocarpa, morning glory, velvetleaf, Palmer amaranth, fat hen, sicklepod
[7] = system: hemp sesbania; assay: Field testing of emulsifiable concentrates, post-emergent control (Example 40); assay type: in vivo
Experimental: (§2) Three dicamba esters, 30a, 32a, and 36a, were formulated as emulsifiable concentrates for field testing. All surfactants are commercial materials from Stepan.
(§3) The formulations were tested in the field. Locations and timing were identical for the three esters, but differed slightly for the diglycolamine control. The esters were compared to the diglycolamine salt of dicamba (CLARITY™) for post-emergent control of three broadleaf weeds: velvetleaf, morning glory, and hemp sesbania. Rates of 280 and 560 g dicamba acid equivalent per hectare were used.

[8] = system: morning glory; assay: as above; assay type: in vivo
Experimental: as §2, §3

[9] = system: velvetleaf; assay: as above; assay type: in vivo
Experimental: as §2, §3

[10] = system: velvetleaf; assay: Greenhouse post-emergent control of velvetleaf by emulsifiable concentrates (Example 30); assay type: in vivo
Experimental: as §1
The methodology of Example 29 was used to evaluate the efficacy of several photo-labile esters of dicamba for post-emergent control of velvetleaf as emulsifiable concentrate formulations described in Example 28.

[11] = 280 g dicamba acid equivalent per hectare
[12] = 560 g dicamba acid equivalent per hectare

| SMILES | photolysis / photo-release of dicamba, in words [1] | Conversion to Dicamba, Dark, Day 0 ([2]; amber (dark) bottle) [%] | Conversion to Dicamba, Dark, Day 1 ([2]; amber (dark) bottle) [%] | Conversion to Dicamba, Dark, Day 2 ([2]; amber (dark) bottle) [%] | Conversion to Dicamba, Dark, Day 3 ([2]; amber (dark) bottle) [%] | Conversion to Dicamba, Dark, Day 4 ([2]; amber (dark) bottle) [%] | Conversion to Dicamba, Dark, Day 7 ([2]; amber (dark) bottle) [%] | Conversion to Dicamba, Light, Day 0 ([2]; quartz tube) [%] | Conversion to Dicamba, Light, Day 1 ([2]; quartz tube) [%] | Conversion to Dicamba, Light, Day 2 ([2]; quartz tube) [%] | Conversion to Dicamba, Light, Day 3 ([2]; quartz tube) [%] | Conversion to Dicamba, Light, Day 4 ([2]; quartz tube) [%] | Conversion to Dicamba, Light, Day 7 ([2]; quartz tube) [%] | solubility, in words [3] | also measured |
| --- | --- | --- | --- | --- | --- | --- | --- | --- | --- | --- | --- | --- | --- | --- | --- |
| COc1c(Cl)ccc(Cl)c1C(=O)Oc1c(C)cc(C)cc1C(C)(C)C [Ester 21] | undergo photo-release of dicamba in vitro |  |  |  |  |  |  |  |  |  |  |  |  |  |  |
| COc1c(Cl)ccc(Cl)c1C(=O)Oc1ccc(=O)n(CCC#N)n1 [Ester 34a] |  | 3 | 9 | 14 | 18 | 23 | 38 | 3 | 10 | 14 | 16 | 20 | 29 | insoluble solid | Conversion to Dicamba, Dark, Day 14 ([2]; amber (dark) bottle): 56%; Conversion to Dicamba, Dark, Day 21 ([2]; amber (dark) bottle): 71%; Conversion to Dicamba, Dark, Day 28 ([2]; amber (dark) bottle, Day 28): 87%; Conversion to Dicamba, Light, Day 14 ([2]; quartz tube): 48%; Conversion to Dicamba, Light, Day 21 ([2]; quartz tube): 60%; Conversion to Dicamba, Light, Day 28 ([2]; quartz tube, Day 28): 71% |
| COc1c(Cl)ccc(Cl)c1C(=O)Oc1nnc(OC(=O)c2c(Cl)ccc(Cl)c2OC)c2ccccc12 [Ester 18, Phthalhydrazide Diester of Dicamba] |  |  |  |  |  |  |  |  |  |  |  |  |  | highly insoluble | cleavage to form dicamba, in words [1]: undergo efficient cleavage to form dicamba |
| COc1c(Cl)ccc(Cl)c1C(=O)Oc1ccc(OC(=O)c2c(Cl)ccc(Cl)c2OC)nn1 [Ester 17, Maleic Hydrazide Diester of Dicamba] |  | 6 | 16 | 26 | 35 | 41 | 49 | 6 | 18 | 26 | 33 | 36 | 42 | readily soluble in organic solvents | Conversion to Dicamba, Dark, Day 14 ([2]; amber (dark) bottle): 60%; Conversion to Dicamba, Light, Day 14 ([2]; quartz tube): 53%; pest or weed control at 140 g/ha [4]: 23.3%; pest or weed control at 280 g/ha [4]: 41.7%; pest or weed control at 420 g/ha [4]: 75%; pest or weed control at 560 g/ha [4]: 73.3%; % control, 0.25 lb/ac (0.28 kg/hectare) ([5]; 0.25 lb dicamba a.e. per acre): 41%; % control, 0.50 lb/ac (0.56 kg/hectare) ([5]; 0.50 lb dicamba a.e. per acre): 53%; cleavage to form dicamba, in words [1]: undergo efficient cleavage to form dicamba; control of a number of broadleaf weeds in field testing, in words [6]: proven effective |
| COc1c(Cl)ccc(Cl)c1C(=O)Oc1nc(C(C)(C)C)cc(C(C)(C)C)c1C#N [Ester 36a] |  | 20 | 59 | 61 | 60 | 60 | 65 | 20 | 57 | 60 | 58 | 59 | 63 |  | Conversion to Dicamba, Dark, Day 21 ([2]; amber (dark) bottle): 66%; Conversion to Dicamba, Light, Day 21 ([2]; quartz tube): 65%; pest or weed control at 140 g/ha [4]: 15.8%; pest or weed control at 280 g/ha [4]: 26.7%; pest or weed control at 420 g/ha [4]: 32.5%; pest or weed control at 560 g/ha [4]: 66.7%; % control 19 days after treatment, 280 g/ha, Hemp sesbania [7, 11]: 82 ± 10%; % control 19 days after treatment, 560 g/ha, Hemp sesbania [7, 12]: 98 ± 2%; % control 19 days after treatment, 280 g/ha, Morning glory [8, 11]: 83 ± 4%; % control 19 days after treatment, 560 g/ha, Morning glory [8, 12]: 93 ± 5%; % control 19 days after treatment, 280 g/ha, Velvetleaf [9, 11]: 72 ± 25%; % control 19 days after treatment, 560 g/ha, Velvetleaf [9, 12]: 84 ± 26%; control of a number of broadleaf weeds in field testing, in words [6]: proven effective |
| COc1c(Cl)ccc(Cl)c1C(=O)OCCOc1ccccc1[N+](=O)[O-] [Ester 3] | the rate of photolysis decreases |  |  |  |  |  |  |  |  |  |  |  |  |  | % Control of velvetleaf, 140 g/ha [10]: 36%; % Control of velvetleaf, 280 g/ha [10]: 57%; % Control of velvetleaf, 420 g/ha [10]: 40%; % Control of velvetleaf, 560 g/ha [10]: 43% |
| COc1c(Cl)ccc(Cl)c1C(=O)OCc1cccc([N+](=O)[O-])c1 [Ester 1c, 3-nitrobenzyl ester of dicamba] | slower and less efficient photolysis than the 2-nitrobenzyl ester |  |  |  |  |  |  |  |  |  |  |  |  |  |  |
| COc1cc(COC(=O)c2c(Cl)ccc(Cl)c2OC)c([N+](=O)[O-])cc1OC [Ester 1b, 6-nitroveratryl ester of dicamba] |  |  |  |  |  |  |  |  |  |  |  |  |  | significantly less soluble than 1a |  |
| COc1c(Cl)ccc(Cl)c1C(=O)OCCOCc1ccccc1[N+](=O)[O-] [Ester 4, 2-(2-Nitrobenzoxy)Ethanol Ester of Dicamba] | the rate of photolysis decreases |  |  |  |  |  |  |  |  |  |  |  |  |  | % Control of velvetleaf, 140 g/ha [10]: 32%; % Control of velvetleaf, 280 g/ha [10]: 52%; % Control of velvetleaf, 420 g/ha [10]: 50%; % Control of velvetleaf, 560 g/ha [10]: 51% |
